Experimental data from patent US10285989B2, “Pyrimidinone amide compounds as PDE2 inhibitors” (Merck Sharp & Dohme Corp., priority 2015, dated 2019).
Like-named read-outs stand apart in the source and are kept apart here.

Columns and labels:
[1] = biological target: human PDE2A1 (Homo sapiens (Human), UniProt O00408); assay: PDE2 IMAP FP inhibition assay, human PDE2A1 (selectivity panel format); type: biochemical
Summary of the method: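 IMAP fluorescence polarization assay; substrate 50 nM FAM-cAMP with 1000 nM cGMP, enzyme at ~20% conversion, in 10 mM Tris pH 7.2, 10 mM MgCl2, 1 mM DTT, 0.01% Tween-20. 60 min room temperature, stopped with IMAP binding reagent, 1 h, then parallel/perpendicular fluorescence read.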

[2] = biological target: Rhesus PDE2A3 (Macaca mulatta, UniProt B3VTJ2); assay: PDE2 fluorescence polarization (IMAP FP) inhibition assay, rhesus PDE2A3; type: biochemical, rhesus macaque
[3] = biological target: P-glycoprotein (P-gp) (Homo sapiens (Human), UniProt P08183); assay: P-gp transport, experimental BA/AB ratio, human; type: in vitro ADME; settings: LLC-PK1, 1 μM substrate concentration
Text: (§1) See Doan et al. “Passive permeability and P-glycoprotein-mediated efflux differentiate central nervous system (CNS) and non-CNS marketed drugs”, J. Pharm. Exper. […] Desirable human BA/AB ratio is less than 2.0. […] See, for example, Desai, et al. Integration of in Silico and in Vitro Tools for Scaffold Optimization during Drug Discovery: Predicting P-glycoprotein Efflux” Mol. Pharmac.

[4] = biological target: P-glycoprotein (P-gp, rat Mdr1a) (Rattus norvegicus, UniProt Q6PSM0); assay: P-gp transport, experimental BA/AB ratio, rat LLC-Mdr1a; type: in vitro ADME; settings: LLC-PK1; rat LLC-Mdrla; 1 μM substrate concentration
Text: as §1

[5] = Lab A, read-out: Human PDE2 Ki (nM) - Lab A
[6] = Lab A, read-out: Rhesus PDE2 Ki (nM) - Lab A
[7] = Lab B, read-out: Human PDE2 Ki (nM) - Lab B
[8] = Lab B, read-out: Rhesus PDE2 Ki (nM) - Lab B

P-glycoprotein (P-gp), sequence (P08183 whole entry): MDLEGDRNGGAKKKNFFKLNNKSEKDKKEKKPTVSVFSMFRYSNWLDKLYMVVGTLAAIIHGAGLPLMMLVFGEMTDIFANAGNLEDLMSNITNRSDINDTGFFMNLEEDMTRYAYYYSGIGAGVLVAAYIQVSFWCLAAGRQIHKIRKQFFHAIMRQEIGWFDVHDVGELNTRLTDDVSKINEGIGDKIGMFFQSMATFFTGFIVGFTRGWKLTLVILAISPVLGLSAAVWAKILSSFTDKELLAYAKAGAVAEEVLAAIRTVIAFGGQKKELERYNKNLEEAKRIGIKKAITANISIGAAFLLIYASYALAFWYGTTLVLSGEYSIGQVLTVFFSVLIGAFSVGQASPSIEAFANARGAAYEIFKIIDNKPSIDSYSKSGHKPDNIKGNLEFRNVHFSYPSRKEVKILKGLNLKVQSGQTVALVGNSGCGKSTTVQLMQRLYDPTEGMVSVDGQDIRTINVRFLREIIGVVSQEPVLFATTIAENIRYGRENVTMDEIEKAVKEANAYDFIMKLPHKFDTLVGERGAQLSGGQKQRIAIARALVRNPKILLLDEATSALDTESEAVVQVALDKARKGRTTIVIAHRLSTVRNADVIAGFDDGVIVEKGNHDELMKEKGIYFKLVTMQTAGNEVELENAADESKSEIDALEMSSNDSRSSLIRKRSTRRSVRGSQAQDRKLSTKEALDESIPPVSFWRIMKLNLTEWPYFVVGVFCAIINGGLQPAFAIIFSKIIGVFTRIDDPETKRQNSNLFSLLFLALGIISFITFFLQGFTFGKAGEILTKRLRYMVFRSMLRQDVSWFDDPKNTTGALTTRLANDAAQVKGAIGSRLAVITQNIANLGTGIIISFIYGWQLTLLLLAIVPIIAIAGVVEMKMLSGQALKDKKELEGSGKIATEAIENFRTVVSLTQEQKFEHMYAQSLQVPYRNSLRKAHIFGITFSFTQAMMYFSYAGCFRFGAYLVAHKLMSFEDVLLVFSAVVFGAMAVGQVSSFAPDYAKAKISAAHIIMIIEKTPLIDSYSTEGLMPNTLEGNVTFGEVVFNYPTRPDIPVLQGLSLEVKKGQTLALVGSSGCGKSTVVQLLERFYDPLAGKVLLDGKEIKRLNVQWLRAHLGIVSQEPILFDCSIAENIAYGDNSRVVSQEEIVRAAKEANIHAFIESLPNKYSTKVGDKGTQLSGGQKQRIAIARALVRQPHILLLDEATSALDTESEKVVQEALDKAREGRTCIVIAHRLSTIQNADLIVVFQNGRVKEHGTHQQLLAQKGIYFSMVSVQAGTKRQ
P-glycoprotein (P-gp, rat Mdr1a), sequence (Q6PSM0 1-1272): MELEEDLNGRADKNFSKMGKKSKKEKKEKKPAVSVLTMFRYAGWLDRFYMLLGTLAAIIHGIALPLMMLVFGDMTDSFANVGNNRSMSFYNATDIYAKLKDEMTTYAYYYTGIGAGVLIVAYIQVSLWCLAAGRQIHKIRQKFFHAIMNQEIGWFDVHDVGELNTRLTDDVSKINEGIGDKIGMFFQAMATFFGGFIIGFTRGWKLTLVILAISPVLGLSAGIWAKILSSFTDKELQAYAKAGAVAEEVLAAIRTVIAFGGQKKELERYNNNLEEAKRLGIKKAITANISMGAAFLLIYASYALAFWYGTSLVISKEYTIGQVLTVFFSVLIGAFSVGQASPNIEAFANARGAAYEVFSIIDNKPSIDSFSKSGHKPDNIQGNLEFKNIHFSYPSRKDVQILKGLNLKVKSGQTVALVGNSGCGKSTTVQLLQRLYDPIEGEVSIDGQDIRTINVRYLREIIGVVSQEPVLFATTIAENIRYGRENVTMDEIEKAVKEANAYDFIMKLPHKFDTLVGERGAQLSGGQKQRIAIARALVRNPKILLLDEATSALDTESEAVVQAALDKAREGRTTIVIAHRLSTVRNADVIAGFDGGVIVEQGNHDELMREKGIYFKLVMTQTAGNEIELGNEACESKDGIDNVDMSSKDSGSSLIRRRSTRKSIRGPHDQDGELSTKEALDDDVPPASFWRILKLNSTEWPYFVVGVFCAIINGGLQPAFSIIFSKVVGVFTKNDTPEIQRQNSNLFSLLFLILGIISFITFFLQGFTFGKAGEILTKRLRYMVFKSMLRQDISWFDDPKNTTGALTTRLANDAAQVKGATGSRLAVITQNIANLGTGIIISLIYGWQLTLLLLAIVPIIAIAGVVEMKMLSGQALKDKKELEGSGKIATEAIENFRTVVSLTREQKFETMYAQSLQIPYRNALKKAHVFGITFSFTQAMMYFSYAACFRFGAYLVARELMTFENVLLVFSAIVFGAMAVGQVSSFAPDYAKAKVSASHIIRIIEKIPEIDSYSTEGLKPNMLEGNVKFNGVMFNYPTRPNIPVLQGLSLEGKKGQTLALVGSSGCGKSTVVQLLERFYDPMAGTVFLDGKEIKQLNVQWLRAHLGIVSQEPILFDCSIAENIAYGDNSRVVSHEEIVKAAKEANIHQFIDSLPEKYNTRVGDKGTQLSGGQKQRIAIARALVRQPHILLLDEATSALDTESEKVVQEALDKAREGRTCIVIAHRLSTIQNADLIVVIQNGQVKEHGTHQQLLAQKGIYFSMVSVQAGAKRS
human PDE2A1, sequence (O00408 other isoform, or with tags, fused parts or gaps): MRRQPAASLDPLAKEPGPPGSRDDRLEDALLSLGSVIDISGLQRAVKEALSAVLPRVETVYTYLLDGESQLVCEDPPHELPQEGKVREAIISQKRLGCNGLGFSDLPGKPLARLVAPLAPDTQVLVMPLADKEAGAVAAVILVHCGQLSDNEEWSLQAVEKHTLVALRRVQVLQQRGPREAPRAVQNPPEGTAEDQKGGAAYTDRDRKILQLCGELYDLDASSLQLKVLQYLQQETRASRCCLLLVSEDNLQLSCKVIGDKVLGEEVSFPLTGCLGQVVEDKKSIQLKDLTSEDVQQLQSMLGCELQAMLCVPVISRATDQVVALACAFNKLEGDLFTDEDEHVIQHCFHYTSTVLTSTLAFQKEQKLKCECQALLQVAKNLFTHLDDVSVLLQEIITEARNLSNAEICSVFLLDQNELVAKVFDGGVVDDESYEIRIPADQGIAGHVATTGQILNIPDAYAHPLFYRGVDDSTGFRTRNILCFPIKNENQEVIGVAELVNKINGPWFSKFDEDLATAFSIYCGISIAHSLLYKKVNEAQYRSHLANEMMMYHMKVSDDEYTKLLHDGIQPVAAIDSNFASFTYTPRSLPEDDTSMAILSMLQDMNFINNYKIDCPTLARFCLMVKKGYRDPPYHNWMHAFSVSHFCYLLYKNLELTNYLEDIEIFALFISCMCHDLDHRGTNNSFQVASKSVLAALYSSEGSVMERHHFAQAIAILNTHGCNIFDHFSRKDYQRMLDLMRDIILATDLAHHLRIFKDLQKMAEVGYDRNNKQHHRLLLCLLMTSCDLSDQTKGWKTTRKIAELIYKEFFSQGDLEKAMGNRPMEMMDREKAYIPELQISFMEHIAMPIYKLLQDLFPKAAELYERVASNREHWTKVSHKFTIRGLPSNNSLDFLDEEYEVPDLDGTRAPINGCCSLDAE
Rhesus PDE2A3, sequence (B3VTJ2 1-941): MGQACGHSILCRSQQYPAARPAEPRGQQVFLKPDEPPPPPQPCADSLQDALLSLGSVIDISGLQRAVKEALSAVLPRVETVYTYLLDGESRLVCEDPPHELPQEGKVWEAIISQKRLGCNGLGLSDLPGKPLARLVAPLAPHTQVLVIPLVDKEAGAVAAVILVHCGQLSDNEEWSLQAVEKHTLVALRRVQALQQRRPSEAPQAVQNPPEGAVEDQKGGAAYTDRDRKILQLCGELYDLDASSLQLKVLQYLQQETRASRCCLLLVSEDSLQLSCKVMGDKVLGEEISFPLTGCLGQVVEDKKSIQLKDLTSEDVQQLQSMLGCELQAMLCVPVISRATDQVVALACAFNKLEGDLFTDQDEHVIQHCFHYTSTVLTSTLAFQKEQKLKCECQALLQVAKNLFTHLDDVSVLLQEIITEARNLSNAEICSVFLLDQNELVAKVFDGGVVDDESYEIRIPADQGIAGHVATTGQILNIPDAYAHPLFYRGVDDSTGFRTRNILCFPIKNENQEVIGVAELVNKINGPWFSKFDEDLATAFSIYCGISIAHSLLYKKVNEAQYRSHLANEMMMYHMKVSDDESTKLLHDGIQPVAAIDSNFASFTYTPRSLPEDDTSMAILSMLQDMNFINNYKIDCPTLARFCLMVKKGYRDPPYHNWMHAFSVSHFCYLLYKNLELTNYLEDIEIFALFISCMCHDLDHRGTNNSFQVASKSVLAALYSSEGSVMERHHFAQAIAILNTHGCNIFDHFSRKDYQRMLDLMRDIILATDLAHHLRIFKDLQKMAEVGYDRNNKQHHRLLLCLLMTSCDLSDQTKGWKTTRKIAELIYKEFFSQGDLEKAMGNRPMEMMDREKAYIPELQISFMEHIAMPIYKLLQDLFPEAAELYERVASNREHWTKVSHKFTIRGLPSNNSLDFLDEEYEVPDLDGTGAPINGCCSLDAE

SMILES | Ki [1, 5] [nM] | Ki [2, 6] [nM] | efflux ratio at 1 μM [3] | efflux ratio at 1 μM [4] | Ki [1, 7] [nM] | Ki [2, 8] [nM]
C[C@@H](NC(=O)c1cc(=O)[nH]c(N(C)C)n1)c1ccc(C(F)(F)F)cc1 [Example 133, 2-(dimethylamino)-6-oxo-N-{(1R)-1-[4-(trifluoromethyl)phenyl]ethyl}-1,6-dihydropyrimidine-4-carboxamide] | 2 | 2.5 | 0.5 | 1.8 | 2.3 | 2.8
CNc1nc(C(=O)N[C@H](C)c2ccc(C(F)(F)F)cc2)cc(=O)[nH]1 [Example 135, 2-(methylamino)-6-oxo-N-{(1R)-1-[4-(trifluoromethyl)phenyl]ethyl}-1,6-dihydropyrimidine-4-carboxamide] | 27 | 36 | 2.7 | 11.4 | – | –
C[C@@H](NC(=O)c1cc(=O)[nH]c(NC2CCC2)n1)c1ccc(C(F)(F)F)cc1 [Example 138, 2-(cyclobutylamino)-6-oxo-N-{(1R)-1-[4-(trifluoromethyl)phenyl]ethyl}-1,6-dihydropyrimidine-4-carboxamide] | 38 | 67 | 1.2 | 29.8 | – | –
CC(C)[C@@H](NC(=O)c1cc(=O)[nH]c(N(C)C)n1)c1ccc(SC(F)(F)F)c(F)c1 [Example 150, 2-(dimethylamino)-N-[(1R)-1-{3-fluoro-4-[(trifluoromethyl)sulfanyl]phenyl}-2-methylpropyl]-6-oxo-1,6-dihydropyrimidine-4-carboxamide] | – | 0.24 | 1.1 | 4.4 | 0.29 | 0.29
CNc1nc(C(=O)N[C@@H](c2ccc(OC(F)(F)F)c(F)c2)C(C)C)cc(=O)[nH]1 [Example 151, N-{(1R)-1-[3-fluoro-4-(trifluoromethoxy)phenyl]-2-methylpropyl}-2-(methylamino)-6-oxo-1,6-dihydro-pyrimidine-4-carboxamide] | 2.8 | 4.7 | 6.5 | 18.7 | – | –
CC(C)[C@@H](NC(=O)c1cc(=O)[nH]c(N)n1)c1ccc(OC(F)(F)F)c(F)c1 [Example 152, 2-amino-N-{(1R)-1-[3-fluoro-4-(trifluoromethoxy)phenyl]-2-methylpropyl}-6-oxo-1,6-dihydropyrimidine-4-carboxamide] | 19 | 33 | 11.6 | 29.2 | – | –
CNc1nc(C(=O)N[C@@H](c2ccc(SC(F)(F)F)c(F)c2)C(C)C)cc(=O)[nH]1 [Example 155, N-[(1R)-1-{3-fluoro-4-[(trifluoromethyl)sulfanyl]phenyl}-2-methylpropyl]-2-(methylamino)-6-oxo-1,6-dihydropyrimidine-4-carboxamide] | 1.2 | 4.3 | 4.2 | 9 | – | –
CC(C)[C@@H](NC(=O)c1cc(=O)[nH]c(N)n1)c1ccc(SC(F)(F)F)c(F)c1 [Example 156, 2-amino-N-[(1R)-1-{3-fluoro-4-[(trifluoromethyl)sulfanyl]phenyl}-2-methylpropyl]-6-oxo-1,6-dihydropyrimidine-4-carboxamide] | 10 | 24 | 11.1 | 11.3 | – | –
C[C@@H](NC(=O)c1cc(=O)[nH]c(N2Cc3ccncc3C2)n1)c1ccc(C(F)(F)F)cc1 [Example 160, 2-(1,3-dihydro-2H-pyrrolo[3,4-c]pyridin-2-yl)-6-oxo-N-{(1R)-1-[4-(trifluoromethyl)phenyl]ethyl}-1,6-dihydropyrimidine-4-carboxamide] | 1 | 1.6 | 17.1 | 28.8 | – | –
C[C@@H](NC(=O)c1cc(=O)[nH]c(N2Cc3cncnc3C2)n1)c1ccc(C(F)(F)F)cc1 [Example 161, 2-(5,7-dihydro-6H-pyrrolo[3,4-d]pyrimidin-6-yl)-6-oxo-N-{(1R)-1-[4-(trifluoromethyl)phenyl]ethyl}-1,6-dihydropyrimidine-4-carboxamide] | 5 | 5.1 | 14.6 | 23.7 | – | –
CC(C)[C@@H](NC(=O)c1cc(=O)[nH]c(N2CC[C@H](F)C2)n1)c1ccc(OC(F)(F)F)c(F)c1 [Example 162, 2-[(3S)-3-fluoropyrrolidin-1-yl]-N-{(1R)-1-[3-fluoro-4-(trifluoromethoxy)phenyl]-2-methylpropyl}-6-oxo-1,6-dihydropyrimidine-4-carboxamide] | – | 0.51 | 2.5 | 17.9 | 0.61 | –
CC(C)[C@@H](NC(=O)c1cc(=O)[nH]c(N2CC(F)C2)n1)c1ccc(OC(F)(F)F)c(F)c1 [Example 164, 2-(3-fluoroazetidin-1-yl)-N-{(1R)-1-[3-fluoro-4-(trifluoromethoxy)phenyl]-2-methylpropyl}-6-oxo-1,6-dihydropyrimidine-4-carboxamide] | – | 2.4 | 2.6 | 7.5 | 3.9 | 4

Results, then the compound that gave them:

Ki [1, 5] [nM] | Ki [2, 6] [nM] | efflux ratio at 1 μM [3] | efflux ratio at 1 μM [4] | Ki [1, 7] [nM] | Ki [2, 8] [nM] | SMILES
24 | 32 | 0.3 | 1.5 | – | – | C[C@@H](NC(=O)c1cc(=O)[nH]c(N2CCCCC2)n1)c1ccc(C(F)(F)F)cc1 [Example 131, 6-oxo-2-piperidin-1-yl-N-{(1R)-1-[4-(trifluoromethyl)phenyl]ethyl}-1,6-dihydropyrimidine-4-carboxamide]
0.32 | 0.57 | 0.5 | 2.5 | 0.82 | 0.61 | C[C@@H](NC(=O)c1cc(=O)[nH]c(N(C)C)n1)c1ccc(SC(F)(F)F)cc1 [Example 143, 2-(dimethylamino)-6-oxo-N-[(1R)-1-{4-[(trifluoromethyl)sulfanyl]phenyl}ethyl]-1,6-dihydropyrimidine-4-carboxamide]
3.4 | 5.7 | 3.3 | 14.2 | – | – | CNc1nc(C(=O)N[C@H](C)c2ccc(SC(F)(F)F)cc2)cc(=O)[nH]1 [Example 144, 2-(methylamino)-6-oxo-N-[(1R)-1-{4-[(trifluoromethyl)sulfanyl]phenyl}ethyl]-1,6-dihydro-pyrimidine-4-carboxamide]
23 | 35 | 3.2 | 28.9 | – | – | C[C@@H](NC(=O)c1cc(=O)[nH]c(N)n1)c1ccc(SC(F)(F)F)cc1 [Example 145, 2-amino-6-oxo-N-[(1R)-1-{4-[(trifluoromethyl)sulfanyl]phenyl}ethyl]-1,6-dihydro-pyrimidine-4-carboxamide]
0.36 | 0.43 | 0.9 | 5.4 | – | – | C[C@@H](NC(=O)c1cc(=O)[nH]c(N2CCCC2)n1)c1ccc(SC(F)(F)F)cc1 [Example 146, 6-oxo-2-pyrrolidin-1-yl-N-[(1R)-1-{4-[(trifluoromethyl)sulfanyl]phenyl}ethyl]-1,6-dihydro-pyrimidine-4-carboxamide]
– | 0.19 | 0.7 | 5.9 | 0.26 | 0.15 | CC(C)[C@@H](NC(=O)c1cc(=O)[nH]c(N2CCCC2)n1)c1ccc(SC(F)(F)F)cc1 [Example 147, N-[(1R)-2-methyl-1-{4-[(trifluoromethyl)sulfanyl]phenyl}propyl]-6-oxo-2-pyrrolidin-1-yl-1,6-dihydropyrimidine-4-carboxamide]
0.2 | 0.42 | 1.3 | 9.5 | – | – | CC(C)[C@@H](NC(=O)c1cc(=O)[nH]c(N2CCC2)n1)c1ccc(SC(F)(F)F)cc1 [Example 148, 2-azetidin-1-yl-N-[(1R)-2-methyl-1-{4-[(trifluoromethyl)sulfanyl]phenyl}propyl]-6-oxo-1,6-dihydropyrimidine-4-carboxamide]
9.9 | 18 | 10.4 | 24.7 | – | – | CC(C)[C@@H](NC(=O)c1cc(=O)[nH]c(N)n1)c1ccc(SC(F)(F)F)cc1 [Example 154, 2-amino-N-[(1R)-2-methyl-1-{4-[(trifluoromethyl)sulfanyl]phenyl}propyl]-6-oxo-1,6-dihydropyrimidine-4-carboxamide]
– | 4.1 | 0.7 | 15.8 | 4.2 | 5 | CC(C)[C@@H](NC(=O)c1cc(=O)[nH]c(N2CC[C@@H](F)C2)n1)c1ccc(OC(F)(F)F)c(F)c1 [Example 163, 2-[(3R)-3-fluoropyrrolidin-1-yl]-N-{(R)-1-[3-fluoro-4-(trifluoromethoxy)phenyl]-2-methylpropyl}-6-oxo-1,6-dihydropyrimidine-4-carboxamide]
– | 0.33 | 3.6 | 20.1 | 0.45 | 0.5 | CC(C)[C@@H](NC(=O)c1cc(=O)[nH]c(N2CC[C@H](F)C2)n1)c1ccc(SC(F)(F)F)c(F)c1 [Example 165, 2-[(3S)-3-fluoropyrrolidin-1-yl]-N-[(1R)-1-{3-fluoro-4-[(trifluoromethyl)sulfanyl]phenyl}-2-methylpropyl]-6-oxo-1,6-dihydropyrimidine-4-carboxamide]
